Results: patent publication US20260355168A1, “COMPOSITIONS AND METHODS FOR TREATING AND DETECTING CANCER” (CASE WESTERN RESERVE UNIVERSITY, priority 2022, published 2026)
Entries after “also recorded” stand apart in the source; their conditions may differ.

Legend:
[1] = test system: parental Sf9 cells; assay: Helix Blue staining of parental Sf9 cells (cell survival); type: cell-based, insect; conditions: 100 μM, 24 h, cells lack PTPμ
Experimental: FIG. 17 illustrates images showing the effects of prioritized inhibitors on cell survival. LN229 cells were plated onto non-adherent surfaces and cultured in the presence of the indicated compounds (100 μM). On day 1, spheres were stained with Helix Blue to detect dying cells. Parental Sf9 cells (which lack PTPμ) plated onto tissue culture plastic were also grown in the presence of the indicated compounds and, on day 1, stained with Helix Blue. Three compounds appeared to cause a qualitative increase in staining in LN229 spheres. No compound was toxic to Sf9 cells.
LN229 cells, plated onto non-adherent surfaces as described above, and parental Sf9 cells (without PTPμ), seeded into 96-well flat bottom tissue culture plates, were treated for 24 h with the indicated compounds (100 μM). The cells and spheres were then treated with 5.5 μM Helix Blue (Biolegend, San Diego, CA) and imaged at 10× on a Leica CTR6500 fluorescence microscope.
The seven penetrant inhibitors were tested to see if they affected the survival of LN229 spheres and parental Sf9 cells (which lack PTPμ) (FIG. 17).

[2] = target: PTPμ (Homo sapiens, UniProt P28827); assay: In vitro phosphatase assay, GST-PTPμ_intra, malachite green; type: biochemical; parameters: A2: GST-PTPμ_intra, entire intracellular domain, aa 765-1449 (phosphatase)
Experimental: FIG. 8 illustrates a histogram showing the results of the phosphatase assays. […] The enzyme was pretreated on ice for 10 min, and the reactions started by addition of a peptide substrate and incubation at 30 °C. The amount of released phosphate was measured at 15 min using the malachite green reaction and normalized to that of the vehicle-treated control. Data is presented as percentages±s.e.m. of the indicated number of independent experiments. Differences were assessed using the Student's t-test with comparison to an untreated control sample (as all DMSO samples were set to 100% release). A difference was deemed significant at p<0.05.
A GST fusion protein containing the intracellular domain of PTPμ (B5: aa 765-1449) (PTPμ_intra) was prepared as described. Phosphatase reactions (50 μl total volume) were assembled on ice by mixing 0.4 μg GST-PTPμ_intra with phosphatase buffer (25 mM Hepes pH 7.4, 50 mM NaCl and 2 mM DTT) and compounds (100 μM) or DMSO (1%). […] Colorimetric product was allowed to develop for 15 min at room temperature, and the absorbance of the samples and a standard curve of free phosphate (assembled per the manufacturer's instructions) were read at 600 nm on a Synergy HT Microplate Reader (BioTek Instruments Inc., Winooski, Vermont). The amount of released phosphate was calculated, normalized to that released by the DMSO control sample, and expressed as a percent. […]

[3] = test system: LN229 tumor xenograft; assay: Human glioma flank tumor (LN229) growth assay in nude mice; type: in vivo, athymic nude mice; human LN229 cells
Experimental: FIGS. 9(A-C) illustrates a plot and images of the results of the human glioma tumor model in mice. LN229-flank tumors (n=6 per treatment group) established in nude mice were injected with vehicle or compound once a week for three weeks. A. Tumor sizes were measured once a week for four weeks and normalized to their starting sizes. Data is presented as average percent growth±s.e.m. Between-group comparisons were made using Student's t-test. Differences were considered significant at p<0.05. […] Representative images of H&E-stained sections from tumors (two per treatment group) harvested at 4-weeks are shown.
Glioma-cell tumor xenografts were prepared as previously described. Briefly, LN229 cells (2×10^6 per injection) mixed with Matrigel (Corning, Corning Inc., Corning, NY, USA) were subcutaneously injected into the flank of athymic nude (FoxN1^nu/Foxn1^nu) female mice bred by the Case Western Reserve University Athymic Animal Core Facility or obtained from The Jackson Laboratory (Bar Harbor, ME). Experiments were approved by our IACUC committee. Twelve days post tumor-cell-injection, 247678835 or DMSO was diluted into PBS to give final concentrations of 2 mM or 20%, respectively, and 25 μl was injected into the center of each flank tumor. Additional compound or DMSO injections were given 7 and 14 days after the first injection, and tumor volumes [(length×width^2)/2] were recorded once a week for 4 weeks. At four weeks, mice were sacrificed, and tumors were isolated, fixed in 10% buffered formalin, and prepared for paraffin sectioning. Five micron-thick sections were cut, stained with H&E, and images captured with a Hamamatsu Nanozoomer S60 Slide Scanner (Hama-matsu Photonics, K.K., Bridgewater, NJ, USA).
Human LN229 glioma cells were subcutaneously injected into the flanks of twelve athymic nude mice (n=6 per treatment group). Once tumors were established (12-days post cell injection), DMSO or 247678835 was injected into the center of each tumor once a week for three weeks, and tumor volumes were calculated from caliper measurements. […] Mice were sacrificed 4 weeks after the first treatment, and tumors were harvested, fixed, sectioned, and stained with H&E.

Chain of PTPμ (P28827 21-1452): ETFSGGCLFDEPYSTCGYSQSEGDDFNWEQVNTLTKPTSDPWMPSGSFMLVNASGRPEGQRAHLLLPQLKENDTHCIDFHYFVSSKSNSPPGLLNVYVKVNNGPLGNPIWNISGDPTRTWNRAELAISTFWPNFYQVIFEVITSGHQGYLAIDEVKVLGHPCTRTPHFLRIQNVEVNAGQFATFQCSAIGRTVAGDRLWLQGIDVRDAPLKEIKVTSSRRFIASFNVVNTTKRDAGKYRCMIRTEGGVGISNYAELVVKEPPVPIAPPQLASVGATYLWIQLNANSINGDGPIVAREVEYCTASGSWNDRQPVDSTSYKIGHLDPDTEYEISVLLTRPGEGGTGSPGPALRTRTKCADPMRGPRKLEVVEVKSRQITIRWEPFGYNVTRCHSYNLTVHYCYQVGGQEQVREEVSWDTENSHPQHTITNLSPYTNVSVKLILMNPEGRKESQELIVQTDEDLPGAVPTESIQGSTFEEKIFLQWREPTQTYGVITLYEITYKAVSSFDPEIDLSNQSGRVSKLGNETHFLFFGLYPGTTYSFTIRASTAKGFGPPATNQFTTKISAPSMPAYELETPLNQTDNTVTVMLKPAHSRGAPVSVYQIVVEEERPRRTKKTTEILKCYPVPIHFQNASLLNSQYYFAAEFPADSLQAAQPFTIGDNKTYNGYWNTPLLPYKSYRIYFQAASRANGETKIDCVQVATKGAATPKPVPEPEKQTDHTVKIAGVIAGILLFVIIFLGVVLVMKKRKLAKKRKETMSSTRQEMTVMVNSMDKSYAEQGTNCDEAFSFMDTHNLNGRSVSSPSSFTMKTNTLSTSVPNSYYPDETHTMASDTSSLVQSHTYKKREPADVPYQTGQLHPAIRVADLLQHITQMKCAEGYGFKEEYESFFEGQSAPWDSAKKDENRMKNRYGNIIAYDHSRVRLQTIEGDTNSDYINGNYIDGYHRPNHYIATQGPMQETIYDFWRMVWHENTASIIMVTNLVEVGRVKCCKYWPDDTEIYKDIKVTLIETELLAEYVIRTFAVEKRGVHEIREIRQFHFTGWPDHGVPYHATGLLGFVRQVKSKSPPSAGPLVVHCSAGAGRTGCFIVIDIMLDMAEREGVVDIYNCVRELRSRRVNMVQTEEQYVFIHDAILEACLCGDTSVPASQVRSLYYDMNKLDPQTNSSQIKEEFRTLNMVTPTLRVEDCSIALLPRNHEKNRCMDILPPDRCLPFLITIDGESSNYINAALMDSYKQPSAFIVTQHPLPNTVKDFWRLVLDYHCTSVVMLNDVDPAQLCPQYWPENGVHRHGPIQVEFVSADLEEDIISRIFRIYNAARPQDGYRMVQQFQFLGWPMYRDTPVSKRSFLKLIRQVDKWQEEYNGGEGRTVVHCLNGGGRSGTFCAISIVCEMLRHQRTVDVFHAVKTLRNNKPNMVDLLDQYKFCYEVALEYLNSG

Q: How did the “Effect on parental Sf9 cell survival” value [1] turn out when `CCN(C(=O)CN1C(=O)NC(C)(CCC(C)C)C1=O)c1cccc2ccccc12` (centres unmarked) [Compound 247677616] was run?
A: Its value is “did not affect parental Sf9 cells”.

Q: With `O=C(NCc1nc(-c2ccncc2)no1)c1ccc(Cl)c(S(=O)(=O)NCc2ccccc2)c1` [Compound 247678791] as the compound, how does the “Effect on PTPμ phosphatase activity (released phosphate)” value ([2]; role: inhibitor, 100 μM, peptide substrate 60 μM, 30 °C, pH 7.4) read?
A: Its value is “modestly inhibit PTPμ's catalytic activity in vitro; also recorded: modest, but highly consistent reduction in released phosphate; also recorded: modestly inhibit the phosphatase activity of a PTPμ-intracellular construct; also recorded: modest, but statistically significant, reduction on enzymatic activity”.

Q: `COc1cc(C)ccc1OCC(=O)Nc1nc(-c2c[nH]c(C(N)=O)c2)cs1` [Compound 247678835] was tested. Which “Tumor size relative to starting size” value ([3]; 3 weeks post first injection, intratumoral once a week, 2 mM, 25 μl) did it give?
A: Its value is 1.3 ×.

Q: What about the “Effect on tumor growth after treatment stopped” value ([3]; 4 weeks post first injection, in words) of the same compound?
A: The value was “appeared to rebound; also recorded: no longer statistically appreciable at 4 weeks post-injection”.

Q: What about the “Tumor histology (H&E)” value ([3]; tumors harvested at 4 weeks) of the same compound?
A: The value was “generally appeared less ‘cellular’ than DMSO-treated controls; also recorded: appeared smaller and less cellular”.

Q: What about the “Effect on tumor growth” value ([3]; up to 3 weeks post first injection, intratumoral, in words) of the same compound?
A: Its value is “inhibit glioma-cell growth in a human glioma tumor model in mice; also recorded: inhibit flank tumor growth in vivo; also recorded: able to affect tumor growth in vivo; also recorded: slowed tumor growth, producing a statistically significant growth reduction by 3 weeks post-first injection”.

Q: What about the “Effect on parental Sf9 cell survival” value [1] of the same compound?
A: The value was “did not affect parental Sf9 cells”.

Q: What about the “Interference with malachite green dye” value ([2]; apparent reaction product in absence of enzyme/substrate) of the same compound?
A: The value was “reacted with the malachite green dye, giving an apparent reaction product in the absence of enzyme/substrate; also recorded: interacted with the dye used to measure the release of free phosphate”.
